This note sets out measurements from ChEMBL document CHEMBL4339204, “Synthesis of α-methylstilbenes using an aqueous Wittig methodology and application toward the development of potent human aromatase inhibitors” (Bioorg Med Chem Lett, 2019).

For this experiment, the target named is T1, Aromatase (Homo sapiens, UniProt P11511).
T1 sequence (P11511 whole entry): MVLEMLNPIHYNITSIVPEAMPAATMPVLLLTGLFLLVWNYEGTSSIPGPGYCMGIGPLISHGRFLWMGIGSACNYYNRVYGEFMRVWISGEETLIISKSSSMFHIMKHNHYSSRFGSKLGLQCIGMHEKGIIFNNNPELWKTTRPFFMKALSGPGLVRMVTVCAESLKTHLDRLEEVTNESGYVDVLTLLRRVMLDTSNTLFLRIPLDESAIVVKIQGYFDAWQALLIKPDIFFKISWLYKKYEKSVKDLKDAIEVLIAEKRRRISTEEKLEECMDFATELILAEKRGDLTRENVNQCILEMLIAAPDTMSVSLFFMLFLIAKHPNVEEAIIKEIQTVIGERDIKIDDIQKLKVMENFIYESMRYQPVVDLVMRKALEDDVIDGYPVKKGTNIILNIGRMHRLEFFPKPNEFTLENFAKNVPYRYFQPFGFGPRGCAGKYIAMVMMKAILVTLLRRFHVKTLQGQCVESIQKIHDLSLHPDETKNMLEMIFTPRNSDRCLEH
Description: Inhibition of recombinant human CYP19A1 using DBF as substrate measured after 1 hr by fluorescence assay
Compound `Clc1ccc(/C=C(\Cn2ccnn2)c2ccc(Cl)cc2)cc1` registered a Ki of 8 nM.
The value for `Brc1ccc(/C=C(\Cn2ccnn2)c2ccc(Br)cc2)cc1` was 24 nM; that for `Clc1ccc(/C=C(/Cn2ccnn2)c2ccc(Cl)cc2)cc1` was 97 nM.
As for `Brc1ccc(/C=C(/Cn2ccnn2)c2ccc(Br)cc2)cc1`, the Ki came out at 450 nM.
The figure for `Clc1ccc(/C(=C\c2ccccc2)Cn2ccnn2)cc1` is 81 nM; for `Brc1ccc(/C(=C/c2ccccc2)Cn2ccnn2)cc1` it is 74 nM.
The figure for `C(=C(\Cn1cncn1)c1ccccc1)/c1ccccc1` is 79 nM.
The value for `C(=C(/Cn1cncn1)c1ccccc1)/c1ccccc1` was 32 nM.
Regarding `Clc1ccc(/C(=C/c2ccccc2)Cn2ccnn2)cc1`, the affinity corresponds to a Ki of 57 nM.
The figure for `Brc1ccc(/C(=C\c2ccccc2)Cn2ccnn2)cc1` is 125 nM; for `c1ccc(CC(Cn2ccnn2)c2ccccc2)cc1` (stereo unspecified) it is 290 nM.
